Among the data in publication PMC12728616, “Regioselective Glycosylation of Fluorine-18-Labeled Sorbitol for Enhanced Bacterial Detection In Vivo Using PET” (JACS Au, 2025) are in vitro uptake values, retold here.

What all share (experiment): In vitro uptake of 18F-tracers by bacteria
What all share (format): cell-based

One assay concerns Enterococcus faecalis. Particulars: E. faecalis; 37 °C, 90 min. As for the experimental part:
(§1) In vitro evaluation of ^18F-tracers was conducted according to our established procedure. Briefly, bacteria were incubated overnight at 37 °C, subcultured into a fresh medium at an initial OD600 of 0.05, and then allowed to reach the mid log phase (OD600 ∼ 0.4). The cultures were subsequently incubated with ^18F-tracers (final concentration: 0.1 MBq/mL) at 37 °C for 90 min. Subsequently, 300 μL aliquots of these cultures were centrifuged at 13,200 rpm for 6 min. The resulting pellets were washed with 300 μL of phosphate-buffered saline (PBS). The radioactivity of the pellets and supernatants was measured using a gamma counter. Uptake values were normalized to colony-forming units (CFUs).

The test system of assay [1] is Staphylococcus epidermidis. As to conditions: S. epidermidis; 37 °C, 90 min. The method, then: as §1
Another assay relates to Streptococcus pyogenes. As to conditions: S. pyogenes; 37 °C, 90 min. The method, then:
as §1

In the next assay the test system is Listeria monocytogenes. Particulars: L. monocytogenes; 37 °C, 90 min. As for the experimental part: as §1

Consider `OC[C@@H](O)[C@@H](O)[C@H](O[C@H]1O[C@H](CO)[C@@H](O)[C@H](O)[C@H]1O)[C@@H]([18F])CO` [[18F]FNT, 2-deoxy-2-[18F]fluoro-D-nigeritol], for which the in vitro uptake entry in the assay with Enterococcus faecalis is “moderate uptake”; in assay [1], “moderate uptake”; with Streptococcus pyogenes, “low”; in the assay on Listeria monocytogenes, “low”.
